In patent publication US9248131B2, “Aquaporin modulators and methods of using them for the treatment of edema and fluid imbalance” (THE ARIZONA BOARD OF REGENTS ON BEHALF OF THE UNIVERSITY OF …, priority 2006, dated 2016):

Experiments:
[1] = tested on: cerebral ischemia (MCAO model); assay: Middle cerebral artery occlusion (MCAO) model, 1 h ischemia and 24 h reperfusion; type: in vivo, mice; details: 60 mg/kg intravenous single bolus 10 min before reperfusion, 1 h ischemia
Text: Anatomical measures of infarct size, brain volume, neurological assessments, and mortality rate can be used to assess the consequences of middle cerebral artery occlusion (MCAO) model in mice. The rodent MCAO model, an accepted model of cerebral ischemia and reperfusion (Clark et al., 1997), uses a silicone-coated filament to promote cerebral artery occlusion (Migliati et al., 2001). An innovative method to measure effective occlusion in real time is by laser Doppler monitoring of blood flow rate
Typical procedure for MCAO model in mice: Wild-type C57BL/6J male mice at 9-11 weeks old are anesthetized, and cerebral blood flow is recorded as baseline using laser Doppler. The monofilament is placed in the internal common carotid and advanced to the ostia of the middle cerebral artery. […] After 24 h, animals are evaluated for neurological, behavioral, and general deficits, and then sacrificed for anatomical analysis of the infarcted and contralateral control hemispheres. […]
FIG. 6 illustrates cerebral edema and infarct size in mice subjected to one hour of ischemia and 24 hours of reperfusion, with and without bumetanide (60 mg/kg) administered intravenously in a single bolus at 10 min before reperfusion. Stained with 2% TTC, the infarcted area is white; areas are analyzed using morphometric software by researchers blinded to the treatment group.

AQP4-expressing oocytes = target: T1, AQP4-expressing oocytes (Homo sapiens, UniProt P55087); assay: Simple screen: time to oocyte bursting in hypotonic saline; type: cell-based; details: 100 μM; AQP4-expressing oocytes preincubated 10-15 min, then 100 mOsm saline
T1 construct: expressed in transfected cells; host or cells: Xenopus oocytes
T1 sequence (P55087 whole entry, species assumed): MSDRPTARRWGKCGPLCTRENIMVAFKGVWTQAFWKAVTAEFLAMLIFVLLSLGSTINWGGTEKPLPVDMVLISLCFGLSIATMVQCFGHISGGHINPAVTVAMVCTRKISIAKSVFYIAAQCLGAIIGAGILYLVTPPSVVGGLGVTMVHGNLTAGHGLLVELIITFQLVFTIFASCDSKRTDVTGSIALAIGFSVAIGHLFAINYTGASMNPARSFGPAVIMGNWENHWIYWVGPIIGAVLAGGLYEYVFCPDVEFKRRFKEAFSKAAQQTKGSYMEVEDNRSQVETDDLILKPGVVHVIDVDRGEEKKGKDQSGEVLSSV
Method: The composition of the library for initial AQP channel screening included various channel, transporter and receptor blocking compounds based on intuition and from clues regarding clinical side effects that involved water transporting tissues. In a simple screen (FIG. 1), control and AQP4-expressing oocytes were preincubated in isotonic saline (100 mM NaCl; 5 mM MgCl2; 5 mM HEPES, pH 7.3; ˜200 mOsm) containing the test compound for 10-15 min before each experiment; then the time to oocyte bursting (physical explosion) after transfer to 100 mOsm saline was monitored visually. […] Block was evident in the increased time required for bursting in hypotonic saline.

With `CCCCNc1cc(C(=O)O)cc(S(N)(=O)=O)c1Oc1ccccc1` [bumetanide] the “cerebral edema and infarct size, statistical significance (p<0.06)” value [1] was “does not meet criteria, but indicates promise” and the “time to oocyte bursting” value (AQP4-expressing oocytes) was “significantly delayed bursting time”.
